Common to all, as to assay type: functional, tissue-based
What all share (settings): Cavia porcellus, 0.5 h

Assay [1] has as its system Ileum. As to the kind of experiment: Antispasmodic activity in guinea pig ileum assessed as inhibition of acetylcholine-induced tissue contraction after 30 mins.
The test system of assay [2] is Ileum. The assay is described as follows: Antispasmodic activity in guinea pig ileum assessed as inhibition of electrically-induced tissue contraction after 30 mins.
Assay [3] relates to Ileum. As to the kind of experiment: Antispasmodic activity in guinea pig ileum assessed as inhibition of histamine-induced tissue contraction after 30 mins.

SMILES strings stand for the structures.

These results are taken from ChEMBL document CHEMBL1158319, “New protopine and benzyltetrahydroprotoberberine alkaloids from Aristolochia constricta and their activity on isolated guinea-pig ileum” (J Nat Prod, 1997).

Broadly, the IC50 is the concentration that gives 50% inhibition.

Regarding `COc1ccc2c(c1)/C=C\N=C\c1cc(O)ccc1CC2=O`, the IC50 was 85 µM in assay [1], 86 µM in assay [2] and 59 µM in assay [3].
The like results for `COc1ccc2c(c1)/C=C\N=C\c1cc(OC)ccc1CC2=O` were, in that order, 58 µM, 66 µM and 68 µM.
On to `O=C1Cc2ccc(O)cc2/C=N/CCc2cc(O)ccc21`, for which the 50% inhibitory concentration (IC50) in assay [1] is 26 µM; in assay [2] it was 21 µM; in assay [3], 26 µM.
With `COc1ccc2c(c1)/C=N/CCc1cc(OC)ccc1C(=O)C2`, the IC50 in assay [1] stood at 20 µM; in assay [2], 19 µM; in assay [3], 22 µM.
The like results for `O=C1Cc2ccc(O)cc2/C=N/C=C\c2cc(O)ccc21` [CONSTRICTOSINE] were, in that order, 75 µM, 66 µM and 51 µM.
